Experiments:
[1] = molecular target: Receptor-type tyrosine-protein phosphatase beta (Homo sapiens, UniProt P23467); experiment: Inhibition of phosphatase activity of human PTPbeta using pNPP as a substrate after 10 mins by spectrophotometer analysis
[2] = molecular target: Receptor-type tyrosine-protein phosphatase epsilon (Homo sapiens, UniProt P23469); experiment: Inhibition of phosphatase activity of human PTPepsilon using pNPP as a substrate after 10 mins by spectrophotometer analysis
[3] = molecular target: T1, Dual specificity protein phosphatase CDC14A (Homo sapiens, UniProt Q9UNH5); experiment: Inhibition of phosphatase activity of human CDC14A using pNPP as a substrate after 10 mins by spectrophotometer analysis
T1 sequence (Q9UNH5 whole entry): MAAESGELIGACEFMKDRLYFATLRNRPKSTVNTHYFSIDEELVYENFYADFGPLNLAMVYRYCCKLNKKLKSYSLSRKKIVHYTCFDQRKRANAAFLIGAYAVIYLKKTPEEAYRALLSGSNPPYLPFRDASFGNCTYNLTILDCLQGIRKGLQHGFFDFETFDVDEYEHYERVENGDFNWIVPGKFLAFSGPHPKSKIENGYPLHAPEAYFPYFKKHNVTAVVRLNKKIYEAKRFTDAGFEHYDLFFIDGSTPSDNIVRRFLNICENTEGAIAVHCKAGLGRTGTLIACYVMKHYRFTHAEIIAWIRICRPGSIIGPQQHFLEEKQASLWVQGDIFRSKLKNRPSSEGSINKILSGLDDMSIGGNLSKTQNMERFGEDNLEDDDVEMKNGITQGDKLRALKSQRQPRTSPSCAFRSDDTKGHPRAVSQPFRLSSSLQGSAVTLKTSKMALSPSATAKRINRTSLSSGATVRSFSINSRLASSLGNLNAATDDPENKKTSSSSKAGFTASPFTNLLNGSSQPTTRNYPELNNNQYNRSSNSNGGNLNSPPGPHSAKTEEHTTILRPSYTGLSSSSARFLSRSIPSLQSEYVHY

[4] = molecular target: T2, Low molecular weight phosphotyrosine protein phosphatase (Homo sapiens, UniProt P24666); experiment: Inhibition of phosphatase activity of human LMWPTP using pNPP as a substrate after 10 mins by spectrophotometer analysis
T2 sequence (P24666 whole entry): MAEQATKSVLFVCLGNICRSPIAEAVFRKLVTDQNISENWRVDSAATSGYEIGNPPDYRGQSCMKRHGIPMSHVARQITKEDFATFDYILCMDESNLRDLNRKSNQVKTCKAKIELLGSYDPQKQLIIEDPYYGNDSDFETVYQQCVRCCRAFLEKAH

[5] = molecular target: Receptor-type tyrosine-protein phosphatase gamma (Homo sapiens, UniProt P23470); experiment: Inhibition of phosphatase activity of human PTPgamma using pNPP as a substrate after 10 mins by spectrophotometer analysis
Receptor-type tyrosine-protein phosphatase gamma, sequence (P23470 whole entry): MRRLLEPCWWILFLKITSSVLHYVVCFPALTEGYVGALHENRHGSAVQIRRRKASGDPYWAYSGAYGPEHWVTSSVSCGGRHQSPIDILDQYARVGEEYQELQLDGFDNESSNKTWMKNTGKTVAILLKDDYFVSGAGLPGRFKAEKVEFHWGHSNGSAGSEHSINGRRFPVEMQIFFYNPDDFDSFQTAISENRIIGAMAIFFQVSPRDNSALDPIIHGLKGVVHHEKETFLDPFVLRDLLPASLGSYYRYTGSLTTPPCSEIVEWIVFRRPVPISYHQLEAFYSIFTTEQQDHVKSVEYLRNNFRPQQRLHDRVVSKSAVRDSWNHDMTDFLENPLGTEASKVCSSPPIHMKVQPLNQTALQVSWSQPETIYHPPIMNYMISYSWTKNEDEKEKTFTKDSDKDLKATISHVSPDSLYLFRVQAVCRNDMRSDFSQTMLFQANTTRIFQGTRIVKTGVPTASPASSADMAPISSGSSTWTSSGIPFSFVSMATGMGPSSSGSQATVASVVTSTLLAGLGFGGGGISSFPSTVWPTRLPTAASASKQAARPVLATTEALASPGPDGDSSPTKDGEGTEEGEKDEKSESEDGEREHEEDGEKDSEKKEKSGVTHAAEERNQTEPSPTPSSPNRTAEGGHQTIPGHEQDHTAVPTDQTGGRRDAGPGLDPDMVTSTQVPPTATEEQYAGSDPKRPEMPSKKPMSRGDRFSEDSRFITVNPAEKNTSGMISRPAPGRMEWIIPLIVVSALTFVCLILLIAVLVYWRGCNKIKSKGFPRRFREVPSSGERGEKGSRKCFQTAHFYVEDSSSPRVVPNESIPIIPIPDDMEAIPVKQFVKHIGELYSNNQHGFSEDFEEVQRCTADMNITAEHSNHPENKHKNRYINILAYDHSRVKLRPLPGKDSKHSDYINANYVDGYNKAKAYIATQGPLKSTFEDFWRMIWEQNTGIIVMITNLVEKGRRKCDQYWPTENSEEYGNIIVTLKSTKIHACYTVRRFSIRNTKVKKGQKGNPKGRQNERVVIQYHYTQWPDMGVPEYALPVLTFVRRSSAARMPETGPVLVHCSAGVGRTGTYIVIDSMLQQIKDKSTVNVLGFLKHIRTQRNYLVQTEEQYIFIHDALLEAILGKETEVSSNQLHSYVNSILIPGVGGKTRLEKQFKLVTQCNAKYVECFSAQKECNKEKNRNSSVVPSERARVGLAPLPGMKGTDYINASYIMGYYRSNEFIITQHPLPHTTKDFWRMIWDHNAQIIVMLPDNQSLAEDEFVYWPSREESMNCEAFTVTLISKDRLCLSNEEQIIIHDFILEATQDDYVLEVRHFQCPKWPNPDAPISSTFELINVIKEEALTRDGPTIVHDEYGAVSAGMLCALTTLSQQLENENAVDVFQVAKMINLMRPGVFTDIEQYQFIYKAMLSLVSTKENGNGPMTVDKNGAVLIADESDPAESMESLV

[6] = molecular target: T3, Tyrosine-protein phosphatase non-receptor type 22 (Homo sapiens, UniProt Q9Y2R2); experiment: Inhibition of phosphatase activity of human LYP using pNPP as a substrate after 10 mins by spectrophotometer analysis
T3 sequence (Q9Y2R2 whole entry): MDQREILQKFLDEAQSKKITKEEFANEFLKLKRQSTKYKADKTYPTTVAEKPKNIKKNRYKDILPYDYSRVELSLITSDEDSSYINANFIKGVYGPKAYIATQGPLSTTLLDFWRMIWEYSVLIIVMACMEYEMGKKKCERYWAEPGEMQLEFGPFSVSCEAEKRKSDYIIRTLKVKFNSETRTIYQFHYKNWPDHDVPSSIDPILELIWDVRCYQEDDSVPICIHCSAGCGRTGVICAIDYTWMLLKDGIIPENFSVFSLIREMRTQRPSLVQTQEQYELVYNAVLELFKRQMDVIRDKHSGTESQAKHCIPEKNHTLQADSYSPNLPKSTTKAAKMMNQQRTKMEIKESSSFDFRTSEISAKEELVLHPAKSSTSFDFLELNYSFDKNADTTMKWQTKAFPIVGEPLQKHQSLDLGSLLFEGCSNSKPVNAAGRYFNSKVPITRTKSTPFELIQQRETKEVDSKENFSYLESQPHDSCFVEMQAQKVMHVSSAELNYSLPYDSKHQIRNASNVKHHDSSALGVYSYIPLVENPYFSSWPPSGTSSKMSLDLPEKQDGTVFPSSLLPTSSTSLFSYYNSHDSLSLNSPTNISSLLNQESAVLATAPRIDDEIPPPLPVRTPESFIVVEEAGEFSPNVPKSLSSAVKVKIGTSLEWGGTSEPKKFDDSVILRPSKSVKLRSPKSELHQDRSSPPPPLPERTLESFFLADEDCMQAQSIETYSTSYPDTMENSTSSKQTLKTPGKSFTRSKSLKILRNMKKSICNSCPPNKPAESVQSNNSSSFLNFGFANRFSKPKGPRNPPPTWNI

[7] = molecular target: T4, Tyrosine-protein phosphatase non-receptor type 7 (Homo sapiens, UniProt P35236); experiment: Inhibition of phosphatase activity of human HePTP using pNPP as a substrate after 10 mins by spectrophotometer analysis
T4 sequence (P35236 whole entry): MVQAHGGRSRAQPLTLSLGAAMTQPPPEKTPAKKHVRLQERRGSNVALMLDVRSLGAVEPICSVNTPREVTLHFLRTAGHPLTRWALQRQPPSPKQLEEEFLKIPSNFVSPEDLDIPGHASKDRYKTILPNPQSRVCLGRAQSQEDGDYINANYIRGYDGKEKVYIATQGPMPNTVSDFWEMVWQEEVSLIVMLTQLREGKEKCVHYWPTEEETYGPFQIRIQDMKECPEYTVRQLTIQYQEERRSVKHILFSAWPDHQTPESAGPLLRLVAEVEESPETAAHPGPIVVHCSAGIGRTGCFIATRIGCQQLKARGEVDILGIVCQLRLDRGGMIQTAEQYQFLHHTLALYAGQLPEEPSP

[8] = molecular target: T5, Tyrosine-protein phosphatase non-receptor type 9 (Homo sapiens, UniProt P43378); experiment: Inhibition of phosphatase activity of human Meg2 using pNPP as a substrate after 10 mins by spectrophotometer analysis
T5 sequence (P43378 whole entry): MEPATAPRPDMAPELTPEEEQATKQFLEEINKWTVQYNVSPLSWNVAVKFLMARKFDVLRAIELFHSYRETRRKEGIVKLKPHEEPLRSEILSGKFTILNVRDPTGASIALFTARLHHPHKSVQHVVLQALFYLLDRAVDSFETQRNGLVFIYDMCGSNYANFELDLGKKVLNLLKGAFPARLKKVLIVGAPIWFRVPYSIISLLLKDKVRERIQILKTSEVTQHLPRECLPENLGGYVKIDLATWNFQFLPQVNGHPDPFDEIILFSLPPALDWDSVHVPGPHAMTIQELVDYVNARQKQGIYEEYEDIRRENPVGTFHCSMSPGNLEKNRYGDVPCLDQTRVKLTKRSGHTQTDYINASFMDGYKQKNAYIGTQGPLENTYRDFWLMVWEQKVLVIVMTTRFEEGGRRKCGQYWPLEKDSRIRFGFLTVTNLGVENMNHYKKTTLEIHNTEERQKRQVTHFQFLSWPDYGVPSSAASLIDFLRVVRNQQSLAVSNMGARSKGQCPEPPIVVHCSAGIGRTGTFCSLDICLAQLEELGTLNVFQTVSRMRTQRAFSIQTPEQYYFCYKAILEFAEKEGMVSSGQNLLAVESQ

Measured: IC50

Receptor-type tyrosine-protein phosphatase beta, sequence (P23467 whole entry): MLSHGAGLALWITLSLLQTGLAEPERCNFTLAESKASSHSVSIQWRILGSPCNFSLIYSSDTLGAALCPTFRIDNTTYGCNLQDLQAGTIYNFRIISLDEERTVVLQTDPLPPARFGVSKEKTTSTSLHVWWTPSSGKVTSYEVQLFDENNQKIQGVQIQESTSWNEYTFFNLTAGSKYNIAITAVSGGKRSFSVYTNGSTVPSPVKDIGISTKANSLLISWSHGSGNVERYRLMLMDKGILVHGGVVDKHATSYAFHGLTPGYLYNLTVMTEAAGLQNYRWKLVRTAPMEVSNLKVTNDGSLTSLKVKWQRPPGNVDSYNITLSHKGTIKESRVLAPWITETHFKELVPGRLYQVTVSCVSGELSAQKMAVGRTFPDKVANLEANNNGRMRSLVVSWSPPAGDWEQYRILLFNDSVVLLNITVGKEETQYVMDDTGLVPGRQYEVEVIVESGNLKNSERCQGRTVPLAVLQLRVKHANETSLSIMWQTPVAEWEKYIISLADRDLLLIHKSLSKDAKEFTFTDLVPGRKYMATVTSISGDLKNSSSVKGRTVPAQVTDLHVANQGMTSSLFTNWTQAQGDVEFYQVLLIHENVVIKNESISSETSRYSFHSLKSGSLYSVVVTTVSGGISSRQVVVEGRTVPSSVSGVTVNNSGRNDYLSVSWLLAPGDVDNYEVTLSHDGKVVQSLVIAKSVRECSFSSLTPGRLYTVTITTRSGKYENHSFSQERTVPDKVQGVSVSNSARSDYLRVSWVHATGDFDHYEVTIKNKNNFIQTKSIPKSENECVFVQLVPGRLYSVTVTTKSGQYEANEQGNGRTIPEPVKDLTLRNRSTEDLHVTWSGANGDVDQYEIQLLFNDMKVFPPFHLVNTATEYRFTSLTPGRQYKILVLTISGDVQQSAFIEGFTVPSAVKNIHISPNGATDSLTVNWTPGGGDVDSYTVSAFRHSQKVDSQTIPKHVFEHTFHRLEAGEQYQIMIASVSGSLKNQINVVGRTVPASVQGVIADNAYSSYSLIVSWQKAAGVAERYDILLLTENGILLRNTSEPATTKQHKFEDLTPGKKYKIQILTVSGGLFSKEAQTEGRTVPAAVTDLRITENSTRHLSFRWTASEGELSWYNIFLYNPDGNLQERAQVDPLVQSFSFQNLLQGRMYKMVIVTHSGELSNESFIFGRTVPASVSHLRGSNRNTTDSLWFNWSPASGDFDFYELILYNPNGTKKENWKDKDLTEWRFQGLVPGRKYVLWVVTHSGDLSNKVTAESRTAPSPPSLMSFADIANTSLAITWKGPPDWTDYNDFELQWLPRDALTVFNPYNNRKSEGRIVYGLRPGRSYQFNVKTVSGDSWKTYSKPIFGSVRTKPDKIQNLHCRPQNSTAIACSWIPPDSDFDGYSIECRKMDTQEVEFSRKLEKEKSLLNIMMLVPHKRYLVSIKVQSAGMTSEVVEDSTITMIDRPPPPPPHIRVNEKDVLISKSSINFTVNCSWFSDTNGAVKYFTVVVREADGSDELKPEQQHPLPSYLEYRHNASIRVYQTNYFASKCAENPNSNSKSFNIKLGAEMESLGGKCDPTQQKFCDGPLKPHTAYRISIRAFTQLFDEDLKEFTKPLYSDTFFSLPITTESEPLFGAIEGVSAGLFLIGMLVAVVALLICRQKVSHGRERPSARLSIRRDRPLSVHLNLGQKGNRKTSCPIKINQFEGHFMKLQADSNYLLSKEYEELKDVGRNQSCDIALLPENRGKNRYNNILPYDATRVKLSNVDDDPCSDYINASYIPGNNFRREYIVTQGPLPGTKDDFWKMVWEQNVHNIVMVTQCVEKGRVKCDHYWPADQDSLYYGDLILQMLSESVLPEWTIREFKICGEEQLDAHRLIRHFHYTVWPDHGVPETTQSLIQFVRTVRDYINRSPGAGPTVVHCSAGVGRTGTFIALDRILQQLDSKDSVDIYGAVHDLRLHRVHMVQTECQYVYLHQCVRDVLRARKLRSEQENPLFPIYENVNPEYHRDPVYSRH
Receptor-type tyrosine-protein phosphatase epsilon, sequence (P23469 whole entry): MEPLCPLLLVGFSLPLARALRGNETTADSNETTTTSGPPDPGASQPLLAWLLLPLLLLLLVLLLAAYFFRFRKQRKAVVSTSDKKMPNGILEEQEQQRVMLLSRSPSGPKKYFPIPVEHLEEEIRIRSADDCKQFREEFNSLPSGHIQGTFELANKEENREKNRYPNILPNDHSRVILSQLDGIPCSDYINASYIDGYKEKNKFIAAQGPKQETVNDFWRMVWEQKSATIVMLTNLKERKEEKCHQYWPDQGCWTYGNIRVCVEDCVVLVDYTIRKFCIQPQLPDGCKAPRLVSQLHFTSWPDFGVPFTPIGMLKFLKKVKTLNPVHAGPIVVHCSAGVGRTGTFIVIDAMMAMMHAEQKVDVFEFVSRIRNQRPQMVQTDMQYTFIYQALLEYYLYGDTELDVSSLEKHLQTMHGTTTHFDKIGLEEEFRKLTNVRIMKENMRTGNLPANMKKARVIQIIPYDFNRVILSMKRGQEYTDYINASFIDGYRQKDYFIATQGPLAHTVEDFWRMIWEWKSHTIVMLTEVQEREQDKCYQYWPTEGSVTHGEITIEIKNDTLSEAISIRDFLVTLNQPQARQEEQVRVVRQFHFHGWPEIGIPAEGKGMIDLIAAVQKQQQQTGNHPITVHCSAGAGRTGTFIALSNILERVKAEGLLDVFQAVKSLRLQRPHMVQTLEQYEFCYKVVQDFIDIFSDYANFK

O=C(Nc1ccc(I)cc1)C(=O)Nc1ccc(NC(=O)C(c2ccccc2)S(=O)(=O)O)cc1 (stereo unspecified)
> 50 µM: [1] | [2] | [3] | [4] | [5] | [6] | [7] | [8]

O=C(Nc1ccc(NC(=O)C(c2ccccc2)S(=O)(=O)O)cc1)C(=O)Nc1ccc(-c2ccccc2)cc1 (stereo unspecified)
> 50 µM: [1] | [2] | [3] | [4] | [5] | [6] | [7] | [8]

From ChEMBL document CHEMBL3608232, “Exploring the Existing Drug Space for Novel pTyr Mimetic and SHP2 Inhibitors” (ACS Med Chem Lett, 2015)
